How the values were obtained:
[1] = Intrinsic clearance in human liver microsomes at 1 uM measured for 15 mins in presence of NADPH regenerating system measured per mg protein by LC-MS/MS analysis; type: ADME, Microsome; settings: read-out: CLH
[2] = biological target: Voltage-gated inwardly rectifying potassium channel KCNH2 (Homo sapiens, UniProt Q12809); test: Inhibition of hERG expressed in CHO cells assessed as inhibition of channel current at holding potential of -80 mV by QPatch assay
[3] = biological target: T1, C-C chemokine receptor type 6 (Homo sapiens, UniProt P51684); test: Antagonist activity at human CCR6 expressed in HEK293 cells assessed as inhibition of CCL20-stimulated intracellular calcium mobilization by Fluo-8-AM based FLIPR analysis
T1 sequence (P51684 whole entry): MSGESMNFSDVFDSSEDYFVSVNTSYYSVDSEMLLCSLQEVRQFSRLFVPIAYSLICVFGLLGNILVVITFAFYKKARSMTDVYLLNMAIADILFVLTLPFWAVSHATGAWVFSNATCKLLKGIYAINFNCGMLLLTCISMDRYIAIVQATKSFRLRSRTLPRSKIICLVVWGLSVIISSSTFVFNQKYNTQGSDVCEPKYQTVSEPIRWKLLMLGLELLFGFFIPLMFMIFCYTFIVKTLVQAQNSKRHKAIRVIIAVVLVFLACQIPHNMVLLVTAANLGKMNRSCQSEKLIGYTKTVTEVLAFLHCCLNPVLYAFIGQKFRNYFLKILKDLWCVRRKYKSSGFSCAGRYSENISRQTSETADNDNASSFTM

[4] = Drug metabolism in human liver microsomes assessed as dGSH trapping by measuring reactive metabolite formation at 10 uM measured after 60 mins in presence of dGSH and NADPH regenerating system by LC-MS/MS analysis; type: ADME, Microsome; settings: 1 h
[5] = Cytotoxicity against human HepG2 cells assessed as reduction in cell viability incubated for 72 hrs by CellTiter-Glo assay
[6] = Dissociation constant, pKa of the compound by potentiometric titration based UV-Vis spectrophotometry
[7] = Lipophilicity, LogD of the compound in 1-Octanol/PBS at pH 7.4 by miniaturized shake flask method
HepaRG = test: Cytotoxicity against human HepaRG cells assessed as leakage of intracellular LDH at 100 uM incubated for 24 hrs by spectrophotometry; type: toxicity, cell-based

Chain of Voltage-gated inwardly rectifying potassium channel KCNH2 (Q12809 whole entry): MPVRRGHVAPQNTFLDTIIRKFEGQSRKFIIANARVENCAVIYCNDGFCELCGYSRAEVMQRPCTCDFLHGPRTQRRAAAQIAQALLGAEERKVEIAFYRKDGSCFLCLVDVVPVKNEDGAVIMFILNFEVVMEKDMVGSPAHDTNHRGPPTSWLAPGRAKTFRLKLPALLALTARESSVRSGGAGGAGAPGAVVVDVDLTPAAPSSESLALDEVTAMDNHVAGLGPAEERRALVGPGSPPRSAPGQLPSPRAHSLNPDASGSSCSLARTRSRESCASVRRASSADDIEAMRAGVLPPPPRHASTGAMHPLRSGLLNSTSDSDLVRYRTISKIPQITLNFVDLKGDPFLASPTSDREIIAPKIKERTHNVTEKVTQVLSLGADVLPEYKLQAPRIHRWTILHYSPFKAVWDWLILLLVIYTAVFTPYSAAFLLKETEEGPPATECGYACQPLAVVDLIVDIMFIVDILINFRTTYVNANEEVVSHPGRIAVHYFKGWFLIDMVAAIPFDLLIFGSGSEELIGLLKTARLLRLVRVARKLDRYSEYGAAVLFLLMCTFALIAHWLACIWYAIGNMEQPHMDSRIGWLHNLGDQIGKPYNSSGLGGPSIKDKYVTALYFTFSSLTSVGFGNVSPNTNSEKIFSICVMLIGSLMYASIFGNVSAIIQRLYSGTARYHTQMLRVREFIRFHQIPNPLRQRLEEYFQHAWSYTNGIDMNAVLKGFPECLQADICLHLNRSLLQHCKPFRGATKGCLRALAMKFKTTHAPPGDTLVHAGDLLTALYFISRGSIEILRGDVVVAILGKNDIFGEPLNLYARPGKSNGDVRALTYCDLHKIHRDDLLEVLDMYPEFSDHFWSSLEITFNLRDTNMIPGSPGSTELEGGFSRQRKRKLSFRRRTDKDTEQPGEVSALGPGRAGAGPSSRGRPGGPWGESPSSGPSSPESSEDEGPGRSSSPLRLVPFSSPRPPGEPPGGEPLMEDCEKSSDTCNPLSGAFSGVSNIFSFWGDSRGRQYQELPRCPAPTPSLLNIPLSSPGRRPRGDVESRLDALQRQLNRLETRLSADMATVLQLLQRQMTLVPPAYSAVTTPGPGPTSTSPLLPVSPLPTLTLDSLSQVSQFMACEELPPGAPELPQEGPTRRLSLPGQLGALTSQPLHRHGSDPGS

CC(C)c1ccc([C@](O)(c2cccc(-c3noc(C(C)(O)C(F)(F)F)n3)c2)C2(C)CN(C)C2)cc1 (stereo partly specified)
microsomal CLint at […], 1 µM [1]: 15 µL/min/mg

CC(=O)N1CC(C)(C(O)(c2ccccc2)c2ccc(OC(F)(F)F)cc2)C1 (stereo unspecified)
IC50 [2]: > 20 µM | IC50 [3]: > 20 µM

CC(C)c1ccc([C@](O)(c2cncc(N3CC[C@H](C(C)(C)O)C3)c2)C2(C)CN(C)C2)cc1
Drug metabolism [4]: < 100 pmol/mg/h

CC(C)c1ccc([C@](O)(c2cncc(N3CCCC3)c2)C2(C)CN(C)C2)cc1
Drug metabolism [4]: 162 pmol/mg/h

CC(C)c1ccc([C@](O)(c2cncc(N3CC[C@H](O)C3)c2)C2(C)CN(C)C2)cc1
Drug metabolism [4]: 504 pmol/mg/h

CC(C)c1ccc([C@](O)(c2cccc(-c3noc(C4CCOCC4)n3)c2)C2(C)CN(C)C2)cc1
Drug metabolism [4]: 167 pmol/mg/h | microsomal CLint at […], 1 µM [1]: 26 µL/min/mg

CC(C)c1ccc([C@](O)(c2cncc(N3CCCC3=O)c2)C2(C)CN(C)C2)cc1
Drug metabolism [4]: < 100 pmol/mg/h

CC(C)c1ccc([C@](O)(c2cncc(N3CC[C@](C)(O)C3)c2)C2(C)CN(C)C2)cc1
Drug metabolism [4]: 392 pmol/mg/h

CC(C)c1ccc([C@](O)(c2cncc(N3C[C@@H](F)[C@@H](F)C3)c2)C2(C)CN(C)C2)cc1
Drug metabolism [4]: < 100 pmol/mg/h

CC(C)c1ccc([C@](O)(c2cnnc(N3CCCC3)c2)C2(C)CN(C)C2)cc1
Drug metabolism [4]: 323 pmol/mg/h | microsomal CLint at […], 1 µM [1]: 475 µL/min/mg

CC(C)c1ccc([C@](O)(c2cccc(-c3noc(CC(C)(C)O)n3)c2)C2(C)CN(C)C2)cc1
microsomal CLint at […], 1 µM [1]: 20 µL/min/mg

CN1CCC(C)(C(O)(c2ccccc2)c2ccc(OC(F)(F)F)cc2)C1 (stereo unspecified)
IC50 [3]: 1.44 µM

CCCC1(C(O)(c2ccccc2)c2ccc(OC(F)(F)F)cc2)CN(C)C1 (stereo unspecified)
IC50 [3]: > 20 µM

CC(C)c1ccc([C@](O)(c2cncc(N3CC4CC(C3)O4)c2)C2(C)CN(C)C2)cc1
Drug metabolism [4]: < 100 pmol/mg/h | microsomal CLint at […], 1 µM [1]: 20 µL/min/mg

CC(C)c1ccc([C@](O)(c2cccc(-c3noc(C4(O)CCC4)n3)c2)C2(C)CN(C)C2)cc1
microsomal CLint at […], 1 µM [1]: 35 µL/min/mg

CC(C)c1ccc([C@](O)(c2cncc(N3CC[C@@H](O)C3)c2)C2(C)CN(C)C2)cc1
Drug metabolism [4]: 541 pmol/mg/h

CC(C)c1ccc([C@](O)(c2cnnc(N3CC4(CC4)CC3=O)c2)C2(C)CN(C)C2)cc1
Drug metabolism [4]: < 100 pmol/mg/h | microsomal CLint at […], 1 µM [1]: < 10 µL/min/mg

CN1CC(C(O)(c2ccccc2)c2ccc(OC(F)(F)F)cc2)C1 (stereo unspecified)
IC50 [2]: 0.52 µM | IC50 [3]: 9.29 µM

CC(C)c1ccc([C@](O)(c2cncc(N3CCOCC3)c2)C2(C)CN(C)C2)cc1
Drug metabolism [4]: 1021 pmol/mg/h | microsomal CLint at […], 1 µM [1]: 138 µL/min/mg

CN1CC(C)(C(O)(c2ccc(OC(F)(F)F)cc2)c2cnnc(N3CCCC3)c2)C1 (racemic)
IC50 at 72 h [5]: > 25 µM

CC(C)COc1cccc(C(O)(c2ccc(OC(F)(F)F)cc2)C2(C)CN(C)C2)c1 (racemic)
IC50 at 72 h [5]: 10 µM

CN1CC(C)(C(O)(c2ccc(OC(F)(F)F)cc2)c2cccc(N3CCCC3)c2)C1 (racemic)
IC50 at 72 h [5]: 5 µM

COc1cccc(C(O)(c2ccc(OC(F)(F)F)cc2)C2(C)CN(C)C2)c1 (racemic)
IC50 at 72 h [5]: > 25 µM | IC50 [2]: 0.22 µM

COc1cncc(C(O)(c2ccc(OC(F)(F)F)cc2)C2(C)CN(C)C2)c1 (racemic)
IC50 at 72 h [5]: > 25 µM

CN1CC(C#N)(C(O)(c2ccc(OC(F)(F)F)cc2)c2cccc(Cl)c2)C1 (racemic)
IC50 [3]: 0.763 µM | pKa [6]: 6.4

CN1CC(F)(C(O)(c2ccc(OC(F)(F)F)cc2)c2cccc(Cl)c2)C1 (racemic)
logD [7]: > 4.1 | IC50 [2]: 0.19 µM | pKa [6]: 7.9

CN1CC(CO)(C(O)(c2ccc(OC(F)(F)F)cc2)c2cccc(Cl)c2)C1 (racemic)
logD [7]: 2.1 | IC50 [2]: 0.56 µM | IC50 [3]: 3.52 µM | pKa [6]: 9.1

CN1CC(C)(C(O)(c2ccc(OC(F)(F)F)cc2)c2ccnc(N3CCCC3)c2)C1 (racemic)
IC50 at 72 h [5]: 9.2 µM

CN1CC(O)(C(O)(c2ccc(OC(F)(F)F)cc2)c2cccc(Cl)c2)C1 (racemic)
logD [7]: 2.7 | IC50 [2]: 1.9 µM | IC50 [3]: 2.06 µM | pKa [6]: 8.8

CC(C)c1ccc(C(O)(c2cccc(N3CCCC3)n2)C2(C)CN(C)C2)cc1 (racemic)
IC50 [3]: 1.21 µM

CN1CC(C)(C(O)(c2ccc(OC(F)(F)F)cc2)c2ccccc2Cl)C1 (racemic)
IC50 [3]: 8.8 µM

CN1CC(C)(C(O)(c2ccc(Cl)cc2)c2ccc(OC(F)(F)F)cc2)C1 (racemic)
IC50 at 72 h [5]: 9.4 µM

CN1CC(C(N)=O)(C(O)(c2ccc(OC(F)(F)F)cc2)c2cccc(Cl)c2)C1 (racemic)
IC50 [2]: 3.3 µM | IC50 [3]: 1.66 µM | pKa [6]: 8.1

CCOc1cncc(C(O)(c2ccc(OC(F)(F)F)cc2)C2(C)CN(C)C2)c1 (racemic)
Activity (HepaRG): Non-Toxic | IC50 at 72 h [5]: > 25 µM | logD [7]: 1.9

CC(C)c1ccc(C(O)(c2cccc(-c3nc(C4CCOCC4)no3)c2)C2(C)CN(C)C2)cc1 (single isomer, unassigned)
microsomal CLint at […], 1 µM [1]: 68 µL/min/mg
